# Measurements taken from patent publication US6638957B1, “Use of compounds with a nitrogen-oxygen heterocycle” (Jomaa Pharmaka GmbH, priority 1999, dated 2003).
# How the values were obtained:
# [1] = system: Pseudomonas aeruginosa; test: antibacterial activity, minimum inhibition concentration in liquid culture; type: cell-based; conditions: LB medium, overnight at 37° C., turbidity, read-out: MIC(nM) of bacteria culture (Pseudomonas aeruginosa)
# Method: A dilution series comprising the concentrations 500, 100, 50, 10 and 0 μmol 1^−1 of the individual compounds in LB medium is introduced into 5 culture microtubes in a volume of 0,5 ml. The tubes were inoculated with 10 μl of an overnight culture of E. coli K12 and shaken overnight at 37° C. The growth of the bacteria was assessed on the basis of the turbidity of the medium. The minimum concentration causing inhibition of bacterial growth was determined (minimum inhibition concentration MIC)
# The antibacterial activity of P. aeruginosa was determined in the same manner.
# [2] = molecular target: T1, DOXP reductoisomerase of Escherichia coli (UniProt P56139); test: inhibition of recombinant DOXP reductoisomerase (NADPH oxidation); type: biochemical; conditions: 1 mM DOXP, 0,3 mM NADPH, pH 7,5; read-out: IC50(nM) of DOXP reductoisomerase from Helicobacter pilori
# T1 sequence (P56139 1-368): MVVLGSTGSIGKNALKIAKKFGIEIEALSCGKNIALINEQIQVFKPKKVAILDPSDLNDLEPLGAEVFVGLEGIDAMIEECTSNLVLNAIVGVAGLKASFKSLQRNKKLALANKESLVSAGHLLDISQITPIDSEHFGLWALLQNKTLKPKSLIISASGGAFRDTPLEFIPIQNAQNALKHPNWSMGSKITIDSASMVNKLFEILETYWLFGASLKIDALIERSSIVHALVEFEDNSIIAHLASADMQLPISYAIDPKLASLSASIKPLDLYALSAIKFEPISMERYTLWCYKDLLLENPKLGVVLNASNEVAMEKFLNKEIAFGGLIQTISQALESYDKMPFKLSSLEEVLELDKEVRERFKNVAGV
# [3] = system: Sinapis arvensis; test: herbicidal activity, Erde Nachauflauf; type: in vivo; conditions: Mutarda arvensis
# Method: (§1) The determination of herbicidal activity is performed according to standard procedure. Again the compounds listed on page 9 are tested.
# [4] = system: Cyperus esculentus; test: herbicidal activity, Erde Nachauflauf; type: in vivo
# Method: as §1
# [5] = system: Setaria viridis; test: herbicidal activity, Erde Nachauflauf; type: in vivo
# Method: as §1
# [6] = system: Beta vulgaris; test: herbicidal activity, Erde Nachauflauf; type: in vivo
# Method: as §1
# [7] = system: Alopecurus myosuroides; test: herbicidal activity, Erde Nachauflauf; type: in vivo
# Method: as §1
# [8] = system: Avena fatua; test: herbicidal activity, Erde Nachauflauf; type: in vivo
# Method: as §1
# [9] = system: Galium aperine; test: herbicidal activity, Erde Nachauflauf; type: in vivo
# Method: as §1
# [10] = system: Amaranthus retroflexus; test: herbicidal activity, Erde Nachauflauf; type: in vivo
# Method: as §1
# [11] = system: Zea mays; test: herbicidal activity, Erde Nachauflauf; type: in vivo
# Method: as §1
# [12] = system: Xanthium strumarium; test: herbicidal activity, Erde Nachauflauf; type: in vivo
# Method: as §1
# [13] = system: Abutilon theophrasti; test: herbicidal activity, Erde Nachauflauf; type: in vivo
# Method: as §1
# [14] = system: Sinapis arvensis; test: herbicidal activity, Erde Vorauflauf; type: in vivo; conditions: Mutarda arvensis
# Method: as §1
# [15] = system: Cyperus esculentus; test: herbicidal activity, Erde Vorauflauf; type: in vivo
# Method: as §1
# [16] = system: Setaria viridis; test: herbicidal activity, Erde Vorauflauf; type: in vivo
# Method: as §1
# [17] = system: Beta vulgaris; test: herbicidal activity, Erde Vorauflauf; type: in vivo
# Method: as §1
# [18] = system: Alopecurus myosuroides; test: herbicidal activity, Erde Vorauflauf; type: in vivo
# Method: as §1
# [19] = system: Avena fatua; test: herbicidal activity, Erde Vorauflauf; type: in vivo
# Method: as §1
# [20] = system: Galium aperine; test: herbicidal activity, Erde Vorauflauf; type: in vivo
# Method: as §1
# [21] = system: Amaranthus retroflexus; test: herbicidal activity, Erde Vorauflauf; type: in vivo
# Method: as §1
# [22] = system: Zea mays; test: herbicidal activity, Erde Vorauflauf; type: in vivo
# Method: as §1
# [23] = system: Xanthium strumarium; test: herbicidal activity, Erde Vorauflauf; type: in vivo
# Method: as §1
# [24] = system: Abutilon theophrasti; test: herbicidal activity, Erde Vorauflauf; type: in vivo
# Method: as §1
# [25] = system: Reis; test: herbicidal activity, Hydro Vorauflauf; type: in vivo
# Method: as §1
# [26] = system: Lepidium; test: herbicidal activity, Hydro Vorauflauf; type: in vivo
# Method: as §1
# [27] = system: Echinochloa; test: herbicidal activity, Hydro Vorauflauf; type: in vivo
# Method: as §1
# [28] = system: Solanum; test: herbicidal activity, Hydro Vorauflauf; type: in vivo
# Method: as §1
# [29] = system: Plasmodium falciparum; test: antimalaria activity on in vitro cultures, [3H]-hypoxanthine incorporation; type: cell-based; conditions: 72 h, inhibition of [3H]-hypoxanthine incorporation, 48 + 24 hours, read-out: IC50(nM) of malaria culture (Plasmodium falciparum)
# Method: The antimalaria activity of the compounds listed on page 9 was determined on in vitro cultures of the malaria pathogen Plasmodium falciparum. The depressions of a 96-well microtitre plate were charged with in each case 200 μl of an asynchroneous Plasmodium falciparum culture at a parasitaemia of 0,4% and haematokrit of 2%. A serial dilution series of the compounds in triple steps between concentrations of 100 to 0,14 μmol 1^−1 was then prepared. The plates were incubated at 37° C., 3% CO2 and 5% O2 over a period of 48 hours. 30 μl medium supplemented with 27 μCi ml^−1 [^3H]-hypoxanthine were then added to each well. After incubation for 24 hours the parasites were harvested by filtration on a glass fibre filter and the radioactivity which had been incorporated was measured. The inhibition of the growth of parasites was measured as the percentage inhibition of the incorporation of tritium. Inhibition of the growth of the parasites has been determined as percentage inhibition of incorporation of tritium based on a comparison without the substance. The half-maximum inhibitory concentration (IC50) of the substance was determined by extrapolation of the values.
smiles,measurement,setting,value
CC(C)N(C)CCCN1OCCC1=O [Compound 7],MIC,[1],9000 nM
same,IC50,[2],18 nM
same,pest or weed control at 2000 g/ha,[3]; 2000 Gramm/Hektar,80%
same,pest or weed control at 2000 g/ha,[4]; 2000 Gramm/Hektar,0%
same,pest or weed control at 2000 g/ha,[5]; 2000 Gramm/Hektar,90%
same,plant injury at 2000 g/ha,[6]; 2000 Gramm/Hektar,70%
same,pest or weed control at 2000 g/ha,[7]; 2000 Gramm/Hektar,80%
same,pest or weed control at 2000 g/ha,[8]; 2000 Gramm/Hektar,80%
same,pest or weed control at 2000 g/ha,[9]; 2000 Gramm/Hektar,95%
same,pest or weed control at 2000 g/ha,[10]; 2000 Gramm/Hektar,50%
same,plant injury at 2000 g/ha,[11]; 2000 Gramm/Hektar,70%
same,pest or weed control at 2000 g/ha,[12]; 2000 Gramm/Hektar,90%
same,pest or weed control at 2000 g/ha,[13]; 2000 Gramm/Hektar,50%
same,pest or weed control at 2000 g/ha,[14]; 2000 Gramm/Hektar,30%
same,pest or weed control at 2000 g/ha,[15]; 2000 Gramm/Hektar,0%
same,pest or weed control at 2000 g/ha,[16]; 2000 Gramm/Hektar,0%
same,plant injury at 2000 g/ha,[17]; 2000 Gramm/Hektar,70%
same,pest or weed control at 2000 g/ha,[18]; 2000 Gramm/Hektar,30%
same,pest or weed control at 2000 g/ha,[19]; 2000 Gramm/Hektar,30%
same,pest or weed control at 2000 g/ha,[20]; 2000 Gramm/Hektar,0%
same,pest or weed control at 2000 g/ha,[21]; 2000 Gramm/Hektar,20%
same,plant injury at 2000 g/ha,[22]; 2000 Gramm/Hektar,30%
same,pest or weed control at 2000 g/ha,[23]; 2000 Gramm/Hektar,0%
same,pest or weed control at 2000 g/ha,[24]; 2000 Gramm/Hektar,0%
same,pest or weed control at 4000 g/ha,[25]; 4000 Gramm/Hektar,30%
same,pest or weed control at 4000 g/ha,[26]; 4000 Gramm/Hektar,0%
same,pest or weed control at 4000 g/ha,[27]; 4000 Gramm/Hektar,40%
same,pest or weed control at 4000 g/ha,[28]; 4000 Gramm/Hektar,30%
same,IC50,[29],400 nM
CN(C)CC(=O)CN1OCCC(C)(C)C1=O [Compound 8],MIC,[1],7300 nM
same,IC50,[2],24 nM
same,pest or weed control at 1000 g/ha,[3]; 1000 Gramm/Hektar,90%
same,pest or weed control at 1000 g/ha,[4]; 1000 Gramm/Hektar,0%
same,pest or weed control at 1000 g/ha,[5]; 1000 Gramm/Hektar,90%
same,plant injury at 1000 g/ha,[6]; 1000 Gramm/Hektar,40%
same,pest or weed control at 1000 g/ha,[7]; 1000 Gramm/Hektar,70%
same,pest or weed control at 1000 g/ha,[8]; 1000 Gramm/Hektar,80%
same,pest or weed control at 1000 g/ha,[9]; 1000 Gramm/Hektar,70%
same,pest or weed control at 1000 g/ha,[10]; 1000 Gramm/Hektar,50%
same,plant injury at 1000 g/ha,[11]; 1000 Gramm/Hektar,70%
same,pest or weed control at 1000 g/ha,[12]; 1000 Gramm/Hektar,90%
same,pest or weed control at 1000 g/ha,[13]; 1000 Gramm/Hektar,50%
same,pest or weed control at 1000 g/ha,[14]; 1000 Gramm/Hektar,30%
same,pest or weed control at 1000 g/ha,[15]; 1000 Gramm/Hektar,0%
same,pest or weed control at 1000 g/ha,[16]; 1000 Gramm/Hektar,0%
same,plant injury at 1000 g/ha,[17]; 1000 Gramm/Hektar,30%
same,pest or weed control at 1000 g/ha,[18]; 1000 Gramm/Hektar,30%
same,pest or weed control at 1000 g/ha,[19]; 1000 Gramm/Hektar,30%
same,pest or weed control at 1000 g/ha,[20]; 1000 Gramm/Hektar,0%
same,pest or weed control at 1000 g/ha,[21]; 1000 Gramm/Hektar,20%
same,plant injury at 1000 g/ha,[22]; 1000 Gramm/Hektar,30%
same,pest or weed control at 1000 g/ha,[23]; 1000 Gramm/Hektar,0%
same,pest or weed control at 1000 g/ha,[24]; 1000 Gramm/Hektar,0%
same,pest or weed control at 2000 g/ha,[25]; 2000 Gramm/Hektar,0%
same,pest or weed control at 2000 g/ha,[26]; 2000 Gramm/Hektar,30%
same,pest or weed control at 2000 g/ha,[27]; 2000 Gramm/Hektar,40%
same,pest or weed control at 2000 g/ha,[28]; 2000 Gramm/Hektar,30%
same,IC50,[29],700 nM
